# Assay results from US20210163453A1, “DERIVATIVES OF PAPAVERINE THAT ARE EFFECTIVE HYPOXIC TUMOR RADIOSENSITIZERS” (Ohio State Innovation Foundation, priority 2018, published 2021).
# Columns and labels:
# cell lines of Table 1 = assay: Cell lines tested for sensitivity to PPV (mitochondrial function); type: cell-based, Human, Murine, Canine; conditions: 29 cell lines: breast, colon, leukemia, lung, normal, osteosarcoma, pancreas, pharynx, tongue
# Procedure: Seahorse analysis of the OCR. Oxygen consumption rate (OCR) was measured using Seahorse XF96 Flux Analyzer (Agilent Technologies). The cells were seeded to attach overnight, wells were washed with pre-warmed XF Calibrant (Agilent Technologies) and the replaced with unbuffered Assay Medium (pH 7.4, 5 mM glucose, 1 mM L-glutamine). The plates were incubated at 37° C. in a CO2-free incubator for 2 hours prior to assay. For succinate rescue assay, cells were permeabilized using XF Plasma Membrane Permeabilizer Reagent (XF PMP, Agilent Technologies) according to the manufacturer's instructions. The OCR rate was measured in 1× Mitochondrial Assay Solution (MAS) (70 mM sucrose, 220 mM mannitol, 10 mM KH2PO4, 5 mM MgCl2, 2 mM Hepes, 0.6% (w/v) fatty acid-free BSA and 1 mM EGTA; pH 7.4). After baseline oxygenation was established, 1 μM rotenone or 10 μM PPV was injected at time A, followed by 5 mM succinate at time B. Error bars represent standard deviation. For the washout experiment, EO771 cells were seeded overnight, then treated with 10 μM PPV or 1 μM rotenone 3 hours prior to OCR measurement. Media was replaced 1 and 2 hours before measurement and OCR reported.
# PPV was tested in vitro to determine if it could decrease mitochondrial function in all cells tested in minutes at low micromolar concentrations (Table 1, FIG. 1A).
# [1] = tested on: NDUFV1 KO NDI1 flank tumors; assay: Pimonidazole staining, NDUFV1 KO NDI1 flank tumors; type: in vivo, mice; conditions: 2 mg/kg PPV
# Procedure: (§1) FIGS. 5A-5E show papaverine radiosensitizes through complex I inhibition. […] Values represent mean viable cells+−SD. […] Values are mean+−SD. […] P value was calculated with two-tailed two-sample t test. […] Curves represent mean tumor volumes+−SEM.
# Pimonidazole staining. Pimonidazole adducts were visualized in hypoxic regions within histological sections of tumor tissues (Kizaka-Kondoh, S. et al. Cancer science 100, 1366-1373 (2009)). Immune-deficient mice bearing EO771 and A549 flank xenografts were treated with 2 mg/kg PPV or saline and 60 mg/kg pimonidazole administered I.P. at 30 minutes and tumors harvested at 90 minutes. Tumor sections were stained with anti-pimonidazole rabbit antisera and anti-rabbit Alexa Fluor 488 secondary antibody. The hypoxic fraction of each tumor was quantified by thresholding signal at 50% of the maximum signal on control sections. Area covered by pimonidazole-positive cells was evaluated from 20 images per animal and averaged. Error bars represent the standard deviation.
# [2] = tested on: NDUFV1 KO NDI1 flank xenografts; assay: Tumor growth delay of NDUFV1 KO NDI1 flank xenografts with XRT; type: in vivo, mice; conditions: 2 mg/kg PPV 35 minutes prior to 8 Gy
# Procedure: as §1
# FIGS. 6A-6E show uncropped western blot membrane used for FIG. 5A showing NDUFV1 and PDH E1α levels (FIG. 6A) before probing for NDI1 (FIG. 6B). […] Values represent mean OCR from at least 5 replicates+−SD. […] Curves represent averaged colony counts+−SD. […] Values are mean tumor volumes+−SEM.
# Tumor Growth kinetics. 2×10^6 EO771 or 5×10^6 A549 cells were injected s.c. into the flanks of 6-week old female immunocompetent C57/B6 (EO771) or immunocompromised nu/nu (A549) mice. Caliper measurements of opposing diameter were used to calculate the tumor volumes. Upon reaching […], the tumors were visualized by cone beam CT and treatment plans calculated using SARRP software. […] Tumor volumes were measured until the post treatment volume increased 3-fold. Error bars represent standard deviation.
# C57BL/6 mice = assay: Acute toxicity, IV to isoflurane-anesthetized mice
# Procedure: Bar graphs represent the mean area covered by pimonidazole-positive cells evaluated from 20 images per animal+−standard error of the mean. P value was calculated against control with two-tailed two-sample t test. […] Mean volumes+−SEM. P values were calculated against XRT with two-tailed two-sample t test. *P<0.05; **P<0.01; ***P<0.001; ****P<0.0001; n.s., not significant.
# Reducing any possible adverse effects of PPV given to cancer patients if it is being used as a radiosensitizer are needed. PDE10A inhibition can cause systemic vascular effects which can result in a drop in blood pressure and increase in heart rate as vessels become more compliant. This acute drop in blood pressure produces a physiological compensation where the individual's heart rate and breathing rate rise to maintain tissue perfusion. If the effect on systemic vasculature was too great, this could lead to cardiovascular collapse and rapid death. Acute toxicity of PPV, SMV23 and SMV32 given IV to mice under anesthesia with 2% isoflurane was determined. Isoflurane delivered in medical air was used so that the effects on tumor oxygenation was reduced, although isoflurane can depress respiration and is typically given in 100% oxygen.
# mitochondrial function = conditions: cited from earlier work
structure (smiles),measurement,setting,value
"COc1ccc(Cc2nccc3cc(OC)c(OC)cc23)cc1OC [PPV, papaverine]",sensitivity to PPV,cell lines of Table 1,List of cell lines positively tested for sensitivity to PPV
same,hypoxic fraction by pimonidazole,[1],no decrease of the hypoxic fraction
same,radiation growth delay with drug,[2],resistant to PPV dependent increase in radiation growth delay
same,time to death after delivery,C57BL/6 mice; 6 mg/kg IV bolus,≤ 5 min
same,Survivors,"C57BL/6 mice; 6 mg/kg IV, 2% isoflurane in medical air",0/3
same,acute toxicity,"C57BL/6 mice; rapid 6 mg/kg IV bolus, isoflurane-anesthetized mice","toxic, with significant gasping of mice, convulsions and death"
same,growth of cells in media containing only galactose,mitochondrial function,slow the growth of cells
